Data published in article PMC12693701, “Glucosinolate-Derived Metabolites from Barbarea vulgaris (Brassicaceae): Evaluation of Antimicrobial, Antioxidant, and Anti-Inflammatory Potentials” (Molecules, 2025).
Values after ≈ are worked out from the molar mass of the structure shown.

Legend:
[1] = biological target: T1, Type I-B soybean lipoxygenase (Glycine max, UniProt P08170); assay: LOX inhibition assay; assay type: biochemical; details: mean ± SD; for inhibition at 100 µM: read-out: Percentage of LOX Inhibition
T1 sequence (P08170 1-839): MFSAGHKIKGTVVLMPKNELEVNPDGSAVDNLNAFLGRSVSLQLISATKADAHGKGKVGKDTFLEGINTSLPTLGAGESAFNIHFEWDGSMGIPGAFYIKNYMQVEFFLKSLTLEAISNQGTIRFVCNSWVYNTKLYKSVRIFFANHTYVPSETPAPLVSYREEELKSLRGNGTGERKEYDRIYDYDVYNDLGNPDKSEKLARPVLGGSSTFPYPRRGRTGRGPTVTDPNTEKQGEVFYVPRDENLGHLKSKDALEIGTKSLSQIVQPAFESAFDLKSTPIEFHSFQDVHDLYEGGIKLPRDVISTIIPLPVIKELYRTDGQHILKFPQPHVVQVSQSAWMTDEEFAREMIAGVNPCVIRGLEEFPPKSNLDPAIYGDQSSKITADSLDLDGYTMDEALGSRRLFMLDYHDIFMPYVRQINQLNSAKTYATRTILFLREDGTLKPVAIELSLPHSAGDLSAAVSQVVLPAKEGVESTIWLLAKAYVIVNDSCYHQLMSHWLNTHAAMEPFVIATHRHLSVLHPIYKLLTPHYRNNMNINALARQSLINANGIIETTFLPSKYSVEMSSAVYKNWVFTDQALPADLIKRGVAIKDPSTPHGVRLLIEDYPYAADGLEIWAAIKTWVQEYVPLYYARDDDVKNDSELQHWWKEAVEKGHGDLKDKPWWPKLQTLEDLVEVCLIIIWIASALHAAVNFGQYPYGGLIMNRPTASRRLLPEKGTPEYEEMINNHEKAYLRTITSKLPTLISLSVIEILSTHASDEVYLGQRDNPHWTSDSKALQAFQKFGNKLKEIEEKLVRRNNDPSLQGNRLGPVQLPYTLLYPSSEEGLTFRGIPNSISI
Procedure: Type I-B soybean lipoxygenase is a commonly used enzyme for studying the anti-inflammatory properties of various compounds [19]. The lipoxygenase (LOX) inhibition assay measures the enzyme’s ability to convert sodium linoleate to 13-hydroperoxylinoleic acid. The inhibition of the enzyme by the investigated compounds was determined by measuring the absorbance at 234 nm for each prepared sample. Specifically, the test compound, Tris buffer, an enzyme solution (5 × 10^3 units/mL in saline), and sodium linoleate (3 mM in Tris buffer, pH 9), were added to a UV cuvette, and the absorbance was recorded. […] All measurements were performed in triplicate.

[2] = test system: F. solani ATCC 11712; assay: Microdilution MIC/MMC; assay type: cell-based, Fusarium solani; details: F. solani ATCC 11712, compounds 1–8; for MIC: Fusarium solani, ATCC11712, read-out: MIC
Procedure: (§1) The antimicrobial activity was evaluated against 15 microorganisms. This included 11 bacterial strains: four standard strains (Staphylococcus aureus ATCC 25923, Bacillus subtilis ATCC 6633, Bacillus pumilus NCTC 8241, and Escherichia coli ATCC 25922) and six clinical or environmental isolates (Staphylococcus aureus, Escherichia coli, Bacillus cereus, Proteus mirabilis, Salmonella enterica, and Klebsiella pneumoniae). One probiotic strain, Bifidobacterium animalis subsp. lactis was tested. In addition, four fungal strains, Candida albicans ATCC 10231, Trichoderma viride ATCC 13233, Aspergillus flavus ATCC 9170, and Fusarium solani ATCC 11712 were tested. The bacterial strains were kept in glycerol stock at −80 °C and the fungal strains in paraffin oil stock at 4 °C.
(§2) Bacterial and yeast suspensions were prepared using the direct colony method, as previously described by Andrews. The turbidity of the initial suspensions was adjusted to match the 0.5 McFarland standard using a densitometer (Biosan, Riga, Latvia), corresponding to approximately 10^8 colony-forming units (CFU)/mL for bacterial cells and 10^6 CFU/mL for yeast cells. Subsequently, 1:100 dilutions of the initial suspensions were prepared in sterile 0.85% saline. Fungal spore suspensions were obtained by gently harvesting spores from agar slopes containing mature mycelial growth. The collected spore suspensions were then diluted 1:1000 in sterile 0.85% saline prior to use.
(§3) Antimicrobial activity was evaluated by determining the minimum inhibitory concentration (MIC) and minimum microbicidal concentration (MMC) using the microdilution plate method with resazurin as an indicator [28]. In the 96-well plates, 100 μL of Mueller–Hinton broth (Torlak, Belgrade, Serbia) for bacterial testing and Sabouraud broth (Torlak, Belgrade, Serbia) for fungal testing were dispensed into each well. The compounds under investigation were initially dissolved in a 10% dimethyl sulfoxide (DMSO) solution, followed by dilution in sterile distilled water, resulting in a working compound solution containing 1% DMSO. A 100 μL aliquot of the stock solution of the tested compound was added to the first row, and twofold serial dilutions were then carried out using a multichannel pipette. The resulting concentration range was from 5 to 0.039 mg/mL. The inoculated microtiter plates were incubated at 37 °C for 24 h for bacteria, at 28 °C for 48 h for yeasts, and at 28 °C for 72 h for molds.
(§4) Each test also included growth control and sterility control. All tests were conducted in duplicate. MIC was defined as the lowest concentration of tested compounds that prevented resazurin color change from blue to pink. For molds, MIC values of the tested compound were determined as the lowest concentration that inhibited visible mycelia growth. MMC was determined by inoculation of the nutrient agar medium by plating […] of samples from wells, where no indicator color change was recorded. At the end of the incubation period, the lowest concentration with no growth (no colony) was defined as MMC.
(§5) Doxycycline, ampicillin and amphotericin B (- Sigma-Aldrich, St. Louis, MO, USA) and ketoconazole (Hemofarm A.D., Vršac, Serbia) were dissolved in a nutrient liquid medium. Doxycycline is a broad-spectrum antibiotic effective against both aerobic and anaerobic Gram-positive and Gram-negative bacteria. Ampicillin, a beta-lactam antibiotic, primarily targets Gram-positive bacteria but also some Gram-negative strains. Amphotericin B is an antifungal drug often used for serious systemic fungal infections and is one of the effective treatments for fungal infections caused by Aspergillus sp. Ketoconazole is an antifungal agent used to inhibit the growth of Candida species.

[3] = test system: C. albicans ATCC 10231; assay: Microdilution MIC/MMC with resazurin; assay type: cell-based, Candida albicans; details: C. albicans ATCC 10231, compounds 1–8; for MIC: Candida albicans, ATCC10231, read-out: MIC
Procedure: as §1, §2, §3, §4, §5

[4] = ABTS radical scavenging assay; details: mean ± SD
Procedure: The ABTS radical cation solution was prepared following the previously described protocol. Different concentrations of the analyzed samples were prepared in DMSO. The test samples were prepared following the specified procedure: 20 µL of sample was combined with 980 µL of methanol, followed by the addition of 1000 µL of ABTS solution. Absorbance was measured at 734 nm. All measurements were performed in triplicate.

[5] = test system: B. animalis subsp. lactis; assay: Microdilution MIC/MMC with resazurin; assay type: cell-based, Bifidobacterium animalis subsp. lactis; details: B. animalis subsp. lactis, compounds 1–8; for MIC: Bifidobacterium animalis, read-out: MIC
Procedure: as §1, §2, §3, §4, §5

[6] = test system: K. pneumoniae; assay: Microdilution MIC/MMC with resazurin; assay type: cell-based, Klebsiella pneumoniae; details: K. pneumoniae, compounds 1–8; for MIC: Klebsiella pneumoniae, read-out: MIC
Procedure: as §1, §2, §3, §4, §5

SMILES	inhibition at 100 µM [1]	MMC [2]	MIC [2]	MMC [3]	MIC [3]	ABTS Scavenging Ability ([4]; 25 µM)	ABTS Scavenging Ability ([4]; 50 µM)	ABTS Scavenging Ability ([4]; 100 µM)	MMC [5]	MIC [5]	MMC [6]	MIC [6]	IC50 [1]
O=C1NCC(c2ccccc2)O1 (stereo not drawn) [Compound 7, 5-Phenyl-1,3-oxazolidin-2-one]	18.3 ± 0.3%	2.5 mg/mL	2500 µg/mL (≈ 15.3 mM)	5 mg/mL	2500 µg/mL (≈ 15.3 mM)	1.3 ± 0.1%	2.7 ± 1.0%	3.9 ± 0.4%	5 mg/mL	2500 µg/mL (≈ 15.3 mM)	2.5 mg/mL	2500 µg/mL (≈ 15.3 mM)	–
S=C1NC[C@H](c2ccccc2)O1 [Compound 5, (S)-5-phenyl-1,3-oxazolidine-2-thione]	40 ± 0.5%	>5 mg/mL	5000 µg/mL (≈ 27.9 mM)	>5 mg/mL	5000 µg/mL (≈ 27.9 mM)	6.6 ± 0.2%	12.3 ± 0.8%	19.1 ± 0.6%	5 mg/mL	1250 µg/mL (≈ 6.97 mM)	5 mg/mL	5000 µg/mL (≈ 27.9 mM)	123 ± 1.5 µM
CSC(=S)NCCc1ccccc1 [Compound 1, Methyl phenethylcarbamodithioate]	47.5 ± 1.5%	1.25 mg/mL	1250 µg/mL (≈ 5.91 mM)	>5 mg/mL	1250 µg/mL (≈ 5.91 mM)	1.7 ± 1.1%	2.2 ± 1.2%	2.6 ± 0.8%	2.5 mg/mL	1250 µg/mL (≈ 5.91 mM)	5 mg/mL	5000 µg/mL (≈ 23.7 mM)	125.5 ± 0.4 µM
S=C1NCC(c2ccccc2)O1 (racemic) [Compound 4, rac-5-Phenyl-1,3-oxazolidine-2-thione]	90.5 ± 0.1%	3.75 mg/mL	2500 µg/mL (≈ 13.9 mM)	5 mg/mL	5000 µg/mL (≈ 27.9 mM)	0.9 ± 0.1%	1.6 ± 0.9%	2.5 ± 0.3%	5 mg/mL	1250 µg/mL (≈ 6.97 mM)	5 mg/mL	2500 µg/mL (≈ 13.9 mM)	61.6 ± 0.6 µM
